These results are taken from paper PMC3462657 (Cancer letters, 2012).

Data set [1] is described as follows: Tissue curcumin/curcuminoids levels by UPLC-fluorescence. It is filed as in vivo, female A/J mice. To be noted: for concentration at 21 days: female, A/J.
The nature of data set [2]: In vitro release from polymeric implants. It is filed as in vitro ADME. To be noted: for cumulative release over 3 weeks: 37°C.
The subject of data set [3] is DBP-induced lung DNA adducts. As to the kind of experiment: Inhibition of DBP-DNA adducts in lung tissue, 32P-postlabeling. The class given is in vivo, female A/J mice. To be noted: coated implants, DBP-treated mice, 3 weeks.
Data set [4] relates to human lung cancer A549 xenograft. As to the kind of experiment: Effect on tumor xenograft.
Details of data set [5]: species or system mice. To be noted: mouse, in vivo.
Setting [6] is: coated implants, PBS + 10% bovine serum.
[7] abbreviates: implants of the individual curcuminoids, 21 days.

Entries after “also recorded” stand apart in the source; their conditions may differ.

With `COc1cc(/C=C/C(O)=C/C(=O)/C=C/c2ccc(O)cc2)ccc1O` [curcumin II, demethoxycurcumin], the concentration at 21 days in data set [1] (mouse, in vivo, level in brain) worked out at 1 ng/g; in data set [1] (mouse, in vivo, level in lung), 1.4 ± 0.4 ng/g. For the same compound, the “cumulative release over 3 weeks” value in data set [2] (setting [6]) was 41.8%.

Turning to `O=C(/C=C/c1ccc(O)cc1)CC(=O)/C=C/c1ccc(O)cc1` [curcumin III, bisdemethoxycurcumin], the concentration at 21 days in data set [1] (mouse, in vivo, level in brain) is 6.4 ng/g; in data set [1] (mouse, in vivo, level in liver), 5 to 6 ng/g; in data set [1] (mouse, in vivo, level in lung), 49.7 ± 1.3 ng/g. Moreover, in data set [2] (setting [6]), the “cumulative release over 3 weeks” value was found to be 51.4%.

In the case of `COc1cc(/C=C/C(=O)CC(=O)/C=C/c2ccc(O)c(OC)c2)ccc1O` [curcumin I], the level in lung in data set [1] (implants of the individual curcuminoids, 10% load, 21 days) turned out to be 6.5 ± 1.6 ng/g lung. In data set [1] (setting [7]), the level in brain worked out at 1.4 ng/g tissue and the level in liver is recorded as 5–6 ng/g tissue.

Consider `Cc1c(-c2cnccn2)ssc1=S` [oltipraz, reference compound], for which, in data set [2] (coated implants agitated in PBS alone at 37°C), the “release in PBS alone” value is on record as “essentially no release”. Besides, the cumulative release entry in data set [2] (coated implants, PBS + 10% bovine serum, after 21 days) is “about 12%”. Besides, in data set [2] (coated implants, PBS + 10% bovine serum, after 60 days), the cumulative release is reported as about 27%. Also, the “in vitro release pattern” value in data set [2] (coated implants, PBS + 10% bovine serum, over 60 days / eight weeks) is listed as “almost zero-order kinetics”. In addition, in data set [3], the “effect on DBP-DNA adduct levels in lung” value was “reduction was statistically significant” and the “lung DNA adducts” value is given as 28±7 adducts/10^9 nucleotides.

As to `CC1=C(CO)C(=O)O[C@@H]([C@@H](C)[C@H]2CC[C@H]3[C@@H]4C[C@H]5O[C@]56[C@@H](O)C=CC(=O)[C@]6(C)[C@H]4CC[C@]23C)C1` [withaferin A], the “total dose administered via the two implants” value in data set [4] (calculated based on the residual amount in the implants) is reported as 2.69 mg. In addition, in data set [4] (given via the implants), the “effect on A549 xenograft” value is reported as “significantly inhibited”. Further, the “inhibition of the tumor” value in data set [4] (intraperitoneally 8 mg/kg, alternate days) was 53%. Further, the effect on tumor result in data set [4] (intraperitoneally, lower dose 4 mg/kg (same total dose as implants), 4 mg/kg) is “ineffective; also recorded: no reduction”. For the same compound, in data set [4] (via implants vs sham), the “body weight at the end of the 8-week study” value was “essentially the same body weight”. Further, in data set [4] (via implants, two 1.5-cm, 5% load), the “reduction in the growth of the tumor (tumor volume)” value came out at 51%. In addition, the “effect on DBP-DNA adduct levels in lung” value is listed as “reduction in the DNA adduct levels” in data set [3] and “diminished DNA adducts, but it was insignificant” in data set [3] (listed as Withaferin A).

As to curcumin, in data set [1] (mouse, in vivo), the “composition of the three curcuminoids in lung tissue” value was “essentially the same compositions” and the “ratio of the three curcuminoids in the liver” value is recorded as 74:18:8. Also, in data set [5], the “biochemical parameters of kidney function” value was “No significant differences”; the “effect on body weight” value was “no significant effect”; the “hematological parameters (white blood cells, red blood cells, hemoglobin)” value is listed as “No significant differences”; the liver enzymes entry was “No significant differences”. In data set [5], the “neutrophils, lymphocytes, monocytes, eosinophils, and basophils” value is “no statistical difference”.
